Consider three molecules from publication PMC8000395, “Effective Small Molecule Antibacterials from a Novel Anti-Protein Secretion Screen” (Microorganisms, 2021).

Where “and” joins values, the source holds several entries; their conditions need not be identical. Equal values may be shown once. Read-outs that look alike come from different tables or passages of the source.

The subject of data set [1] is PhoA secretion in E. coli strain BL21 (pLysS). Briefly: Luminescence-based HTS assay of in vivo PhoA secretion. The class given is cell-based. The conditions noted are these: Escherichia coli, BL21, luminescence-based HTS assay, E. coli BL21; read-out: Inhibition of PhoA Secretion IC50, HTS.
Data set [2] has as its system PhoA secretion in E. coli MC4100. Briefly: microbe, parasite or virus in culture. The class given is cell-based. The conditions noted are these: Escherichia coli; PNPP colorimetric lab-scale assay; read-out: Inhibition of PhoA Secretion IC50, Lab-Scale.
The test system of data set [3] is PhoA secretion in BW25113ΔtolC. Briefly: Lab-scale p-nitrophenyl PhoA secretion assay, ΔtolC strain. The data set is classed as cell-based, E. coli.
Data set [4] relates to E. coli MC4100. Briefly: Antimicrobial activity test (growth, OD600). The class given is cell-based. The settings on record: Escherichia coli, MC4100; 20 h, 37 °C, OD600; read-out: Bacterial Viability IC50, E. coli MC4100.
Data set [5] concerns E. coli BW25113. Briefly: Antimicrobial activity test (growth, OD600). The data set is classed as cell-based. The conditions noted are these: Escherichia coli, 20 h, 37 °C, read-out: Bacterial Viability IC50, E. coli BW25113.
Data set [6] has as its system B. subtilis ATCC6633. Briefly: Antimicrobial activity test (growth, OD600). The data set is classed as cell-based. The settings on record: Bacillus subtilis, ATCC6633; 20 h, 37 °C, OD600; read-out: Bacterial Viability IC50, B. subtilis ATCC6633.
Data set [7] relates to HEK293T cells. The conditions noted are these: 24 h; for Toxicity of Mammalian Cells (HEK293T) LD50: human. As to the method:
Hek293T cells were harvested and diluted obtaining a cell suspension with a concentration of 200,000 cells/mL in complete growth medium (DMEM, 4.5 g/L d-glucose, pyruvate 1 mM, 0.075% bicarbonate and 10% Fetal Bovine serum). Of this cell suspension, 50 µL (10,000/well) was seeded in a 384 well culture plate (white polystyrene, tissue culture treated) and incubated at 37 °C-5% CO2 for 4 h in a moisturized incubator, which enables the cells to adhere. After the incubation, small chemical compounds were diluted in medium and 10 µL of a compound solution was added onto the cells, ending up with the required compound concentration. The cells were incubated for 24 h at 37 °C-5% CO2 in a moisturized incubator where after × µL medium was removed to equalize the liquid levels within one plate ending up with ±25 µL/well. The amount of remaining cells/well was determined with ATPlite^TM 1step (Perkin Elmer) Adenosine TriPhosphate (ATP) monitoring system, which is based on firefly luciferase.
The cytotoxicity was calculated by subtracting RLU (relative light units) obtained from the cells incubated with a compound from the RLUs obtained from cells in the presence of the vehicle.
The cytotoxic effect of a test compound was determined as:
Percent cell death = [1−((RLU determined for sample with test compound present—1) divided by (RLU determined in the presence of vehicle—1))] * 100.

The nature of data set [8]: Turbidimetric kinetic aqueous solubility assay. The class given is physicochemical. The settings on record: kinetic from dmso stock. The method, then: The determination of the aqueous solubility of compounds in this assay is based on the principle of turbidimetry. Turbidimetric methods rely on the measurement of light scattering from precipitate in solution to determine the solubility. Precipitation is identified by an absorbance increase due to blockage of the light by the particles at the wavelength of 570 nm. Compounds, stored in matrix vials (Thermo Fisher) at a stock concentration of 30 mM or 10 mM in 100% Dimethyl sulfoxide (DMSO), were used to make a serial dilution (dose-response) in a 96-well v-bottom propylene plate (Greiner, 651201). Serial dilutions are made to perform the solubility assay; they were made row-wise and start with undiluted compound (30 mM or 10 mM) in the first well and were then 1 over 3 diluted further on. The serial dilutions were eight doses long and contain six compounds per plate maximal (rows B-G). Columns 1 and 12 were filled with 100% DMSO for control purposes. The dose-response plates were 200-times diluted in 300 µL Phosphate Buffered Saline (PBS; pH = 7–7.2 without Ca^2+/Mg^2+) (Gibco, 14190-144) by transferring 1.5 µL of serially diluted compound. […] Dilutions were made by diluting one 96-well plate in two 96-well, flat-bottom, polystyrene plates (Greiner, 655101). These plates were then incubated at room temperature for 1h. After 1h incubation, the plates were read on the envision (Perkin Elmer) at 570 nm.
The data of this assay is reported as “Soluble at” value for each compound. This “soluble at” value represents the concentration where the compound is still soluble and is the concentration before the first precipitated concentration. The first precipitated concentration is the concentration where the absorbance value is more than five standard deviations higher than the average background absorbance. The average background absorbance and the standard deviation are calculated on the 0.5% DMSO controls in columns 1 and 12.

Data set [9] concerns Mycobacterium abscessus ATCC19977. Briefly: Antimicrobial activity test (growth, OD600). The data set is classed as cell-based. The conditions noted are these: Mycobacteroides abscessus, read-out: Bacterial Viability (IC50).
In data set [10] the test system is Pseudomonas aeruginosa 3/88. Briefly: Antimicrobial activity test (growth, OD600). The data set is classed as cell-based. The settings on record: read-out: Bacterial Viability (IC50).
The test system of data set [11] is Klebsiella pneumoniae ATCC 27799. Briefly: Antimicrobial activity test (growth, OD600). The data set is classed as cell-based. The settings on record: ATCC27799, read-out: Bacterial Viability (IC50).
For data set [12], the system named is Enterobacter cloacae. Briefly: Antimicrobial activity test (growth, OD600). The class given is cell-based. The conditions noted are these: read-out: Bacterial Viability (IC50).
For data set [13], the system named is Proteus vulgaris. Briefly: Antimicrobial activity test (growth, OD600). The data set is classed as cell-based. The conditions noted are these: read-out: Bacterial Viability (IC50).
Data set [14] deals with Providencia stuartii. Briefly: Antimicrobial activity test (growth, OD600). The data set is classed as cell-based. The settings on record: read-out: Bacterial Viability (IC50).
For data set [15], the system named is Enterococcus faecium ATCC 804B. Briefly: Antimicrobial activity test (growth, OD600). The data set is classed as cell-based. The conditions noted are these: ATCC804B, read-out: Bacterial Viability (IC50).
For data set [16], the system named is Staphylococcus aureus ATC6538P. Briefly: Antimicrobial activity test (growth, OD600). The class given is cell-based. The settings on record: Staphylococcus aureus ATC6538P; read-out: Bacterial Viability (IC50).
The subject of data set [17] is Streptococcus pneumoniae. Briefly: Antimicrobial activity test (growth, OD600). The class given is cell-based. The settings on record: read-out: Bacterial Viability (IC50).
The test system of data set [18] is Gram-positive bacteria. Briefly: Antimicrobial activity test, summary over Gram-positive bacteria. The class given is cell-based.
Data set [19] deals with E. coli BW25113::imp-2413+. Briefly: Antimicrobial activity test (growth, OD600). The settings on record: Escherichia coli, BW25113, read-out: Viability IC50, BW25113::imp-2413+.
The mark [20] stands for this setting: Escherichia coli, read-out: Inhibition of PhoA Secretion IC50, Lab-Scale (ΔtolC strain), BW25113ΔtolC, p-nitrophenyl assay.
[21] abbreviates: Escherichia coli, read-out: Inhibiton of PhoA secretion in ΔtolC strain (Lab-scale) IC50, selection threshold of the screening pipeline, Figure 1B.
The mark [22] stands for this setting: pH 7, aqueous buffer, turbidimetry 570 nm, PBS pH 7–7.2, 0.5% DMSO, 1 h, read-out: Aqueous Solubility (soluble at).
[23] abbreviates: pH 7.1, aqueous buffer, selection threshold, Figure 1B, read-out: Solubility.
Where [24] appears, read: B. subtilis, S. aureus, E. faecalis, S. pneumoniae, M. abscessus, read-out: Viability of Gram-positive bacteria IC50 (range over species).
The mark [25] stands for this setting: for 80% of strains, selection threshold, Figure 1B, read-out: Bactericidal activity Gram+ IC50.

`O=C(/C=C/c1csnn1)c1ccccc1Cl` [HSI#01]: the IC50 was 11.9 µM in [1]; 12.5 µM in data set [2]; 1.37 µM in [3] (setting [20]); < 2 µM in [3] (setting [21]); 1.4 µM in data set [3] (read-out: Inhibition of PhoA Secretion IC50, Lab-Scale (ΔtolC strain), BW25113ΔtolC, p-nitrophenyl assay); > 100 µM in data set [4]. Besides, the IC50 is > 100 µM in [5]; 37.6 µM in data set [6]; 33.8 µM in data set [9]; > 100 µM in data set [10]; 80 to 100 µM in [11]; > 100 µM in data set [12]. Also, the IC50 is 80 to 100 µM in [13]; > 100 µM in [14]; 34.5 µM in [15]; 14.8 µM in [16]; 77.8 µM in [17]; 7 to 38 µM in [18] (setting [24]). Moreover, the figures for the IC50 in [18] (setting [25]) and in [19] were < 28 µM and 23.2 µM, respectively. For the same molecule, the “Human cell toxicity LD50” value in [7] is > 15 µM. In addition, in [7], the “Toxicity of Mammalian Cells (HEK293T) LD50” value (“Toxicity of Mammalian Cells” for short) was 6.7 µM. In addition, the solubility at 1 h in [8] (setting [22]) was 50 µM and 12.5 µg/mL; in data set [8] (setting [23]), > 15 µM.
Consider `O=C(/C=C/c1csnn1)c1cc(Cl)ccc1Cl` [HSI#05], for which the IC50 in data set [1] was 35.2 µM; in data set [2] it was 7 µM; in data set [3] (setting [20]) it was 0.94 µM; in data set [3] (setting [21]) it was < 2 µM; in data set [4], > 100 µM; in data set [5] it was > 100 µM. The IC50 in data set [6] is 27.8 µM; in data set [9], 17.9 µM; in [10], > 100 µM; in data set [11], > 100 µM; in data set [12] it was > 100 µM; in [13] it was > 100 µM. For the same molecule, the IC50 was > 100 µM in data set [14]; 9.4 µM in data set [15]; 4.1 µM in [16]; 29.7 µM in [17]; 7 to 38 µM in [18] (setting [24]); < 28 µM in data set [18] (setting [25]). In addition, the IC50 in [19] was 10.3 µM. The “Human cell toxicity LD50” value in [7] is > 15 µM. In addition, the “Toxicity of Mammalian Cells” value in [7] is reported as 6.7 µM. Also, the values for the solubility at 1 h in data set [8] (setting [22]) and in [8] (setting [23]) were 4.8 µg/mL and > 15 µM, respectively.
Regarding `O=C(/C=C/c1csnn1)c1cccc2ccccc12` [HSI#10], the IC50 in [1] was 20 µM; in data set [2] it was 19.6 µM; in [3] (setting [20]), 0.99 µM; in [3] (setting [21]), < 2 µM; in data set [4], > 100 µM; in [5], > 100 µM. Further, the IC50 was 26 µM in data set [6]; 21.8 µM in [9]; > 100 µM in [10]; > 100 µM in [11]; > 100 µM in data set [12]; > 100 µM in data set [13]. For the same molecule, the IC50 in data set [14] is > 100 µM; in data set [15], 23.5 µM; in [16], 7.8 µM; in [17], 60.9 µM; in [18] (setting [24]), 7 to 38 µM; in [18] (setting [25]), < 28 µM. The IC50 in data set [19] came out at 12.2 µM. The “Human cell toxicity LD50” value in data set [7] is > 15 µM. Besides, the “Toxicity of Mammalian Cells” value in [7] came out at 6.7 µM. For the same molecule, the figures for the solubility at 1 h in data set [8] (setting [22]) and in data set [8] (setting [23]) were 4.4 µg/mL and > 15 µM, respectively.

The IC50 is the concentration that gives 50% inhibition. For orientation: solubility means how much of the substance goes into solution per volume.
